For one experiment, the system named is A. baumannii AYE. Nature of the experiment: Fixed-concentration (0.25× MIC bolalipid) synergy broth microdilution. The conditions noted are these: Acinetobacter baumannii. The experiment is classed as cell-based.
Another experiment concerns K. pneumoniae NCTC 13368. The description is as above. The experiment is classed as cell-based, Klebsiella pneumoniae. The settings on record: for MIC of aminoglycoside: K. pneumoniae NCTC 13368; for MIC: Klebsiella pneumoniae.
A further experiment relates to P. aeruginosa PAO1. The description is as above. The experiment is classed as cell-based, Pseudomonas aeruginosa. The settings on record: Pseudomonas aeruginosa, PAO1, P. aeruginosa PAO1, read-out: MIC of aminoglycoside.
A further experiment relates to K. pneumoniae M6. The experiment is described as above. Type of experiment: cell-based. The settings on record: Klebsiella pneumoniae.
The test system of the next experiment is E. coli NCTC 12923. Described as above. The experiment is classed as cell-based. The settings on record: Escherichia coli, NCTC12923, E. coli NCTC 12923, read-out: MIC of aminoglycoside.
The next experiment has as its system P. aeruginosa NCTC 13437. Described as above. The experiment is classed as cell-based, Pseudomonas aeruginosa. The conditions noted are these: Pseudomonas aeruginosa, NCTC13437, P. aeruginosa NCTC 13437, read-out: MIC of aminoglycoside.
For experiment [1], the system named is A. baumannii ATCC 17978. The experiment in a line: G. mellonella burn wound infection model. Type of experiment: in vivo, Galleria mellonella. The conditions noted are these: alone. An excerpt: In addition to the intrahemocoelic infection/therapy models described above, a recently described G. mellonella burn wound model was adopted ([37]). The burn was created using the flat head of a nail, which was heated in a blue Bunsen burner flame until red hot, cooled for 15 s, and superficially applied for 2 s to generate a 2-mm^2 burn. Larvae were then infected with a single colony of A. baumannii ATCC 17978 applied directly to the burn site, or sterile phosphate-buffered saline was applied as a control. Treatment was applied topically 1 h after infection in a volume of 5 μL. Survival was monitored over 96 h.

In experiment [2] the test system is A. baumannii ATCC 17978. The experiment in a line: Fixed-concentration (0.25× MIC bolalipid) synergy broth microdilution. The settings on record: Acinetobacter baumannii, ATCC17978, A. baumannii ATCC 17978, read-out: MIC of aminoglycoside. The experiment is classed as cell-based.
The next experiment has as its system M. smegmatis mc^2 155. Nature of the experiment: Broth microdilution MIC (Middlebrook 7H9). The experiment is classed as cell-based, Mycobacterium smegmatis.
The test system of experiment [3] is EMR Staphylococcus aureus 15 NCTC 13616. The experiment in a line: Broth microdilution MIC. The experiment is classed as cell-based. The conditions noted are these: EMR Staphylococcus aureus 15 NCTC 13616.
A further experiment relates to M. tuberculosis Bleupan. The experiment in a line: microbe, parasite or virus in culture. Type of experiment: cell-based, Mycobacterium tuberculosis.
The next experiment relates to C. tropicalis 8760. Nature of the experiment: Broth microdilution MIC. The conditions noted are these: C. tropicalis 8760. The experiment is classed as cell-based.
Experiment [4] relates to EMR Staphylococcus aureus 16 NCTC 13277. The experiment in a line: Broth microdilution MIC. The experiment is classed as cell-based. The settings on record: EMR Staphylococcus aureus 16 NCTC 13277.
Experiment [5] relates to Escherichia coli NCTC 12923. Nature of the experiment: Broth microdilution MIC. Type of experiment: cell-based.
The next experiment deals with HeLa. The experiment in a line: In vitro toxicity for cell line. Type of experiment: cell-based, human. The settings on record: average ± standard error from 3 independent repeats. An excerpt: (§1) TABLE 2 Toxicity of bolaamphiphiles for two cell lines^a | column: Toxicity (EC50 [μg/ml]) of: / 12-bis-THA Cl2; Toxicity (EC50 [μg/ml]) of: / Dequalinium; Toxicity (EC50 [μg/ml]) of: / Quino-bola; Toxicity (EC50 [μg/ml]) of: / Penta-bola; Toxicity (EC50 [μg/ml]) of: / Hepta-bola; Toxicity (EC50 [μg/ml]) of: / Octa-bola; Toxicity (EC50 [μg/ml]) of: / Octa-C10; Toxicity (EC50 [μg/ml]) of: / Octa-C8; Toxicity (EC50 [μg/ml]) of: / Octa-C6

Another experiment relates to HEK293. The experiment in a line: In vitro toxicity for cell line. The experiment is classed as cell-based, human. The settings on record: HEK293; average ± standard error from 3 independent repeats.
Excerpt: as §1

Experiment [6] has as its system Acinetobacter baumannii AYE. Nature of the experiment: Broth microdilution MIC. Type of experiment: cell-based. The settings on record: Acinetobacter baumannii AYE.
The test system of a further experiment is C. parapsilosis 3209. The experiment in a line: Broth microdilution MIC. The experiment is classed as cell-based.
The test system of a further experiment is C. glabrata 8018. The experiment in a line: Broth microdilution MIC. The experiment is classed as cell-based. The conditions noted are these: C. glabrata 8018.
The subject of experiment [7] is Klebsiella pneumoniae NCTC 13368. The experiment in a line: Broth microdilution MIC. The experiment is classed as cell-based.
The next experiment concerns C. albicans 3281. Nature of the experiment: Broth microdilution MIC. Type of experiment: cell-based, Candida albicans. The settings on record: C. albicans 3281.
Experiment [8] relates to VS Enterococcus faecalis NCTC 775. Nature of the experiment: Broth microdilution MIC. Type of experiment: cell-based.
In experiment [9] the test system is Pseudomonas aeruginosa NCTC 13437. The experiment in a line: Broth microdilution MIC. The experiment is classed as cell-based.
Another experiment has as its system C. albicans 3179. Nature of the experiment: Broth microdilution MIC. Type of experiment: cell-based, Candida albicans. The settings on record: C. albicans 3179.
Experiment [10] relates to VR Enterococcus faecalis NCTC 12201. Nature of the experiment: Broth microdilution MIC. The conditions noted are these: VR Enterococcus faecalis NCTC 12201. The experiment is classed as cell-based.
Another experiment relates to Klebsiella pneumoniae M6. The experiment in a line: Broth microdilution MIC. Type of experiment: cell-based.
A further experiment concerns C. auris temp probe. Nature of the experiment: Broth microdilution MIC. Type of experiment: cell-based, Candida auris. The conditions noted are these: C. auris temp probe.
The subject of a further experiment is C. parapsilosis. The experiment in a line: Broth microdilution MIC. Type of experiment: cell-based.
Experiment [11] concerns VR Enterococcus faecium NCTC 12204. Nature of the experiment: Broth microdilution MIC. The settings on record: VR Enterococcus faecium NCTC 12204. The experiment is classed as cell-based.
A further experiment relates to C. krusei 3876. Nature of the experiment: Broth microdilution MIC. Type of experiment: cell-based.
The test system of experiment [12] is Pseudomonas aeruginosa PAO1. The experiment in a line: Broth microdilution MIC. Type of experiment: cell-based.
For experiment [13], the system named is Acinetobacter baumannii ATCC 17978. The experiment in a line: Broth microdilution MIC. Type of experiment: cell-based.
In another experiment the test system is EMRSA-15. The experiment is classed as in vivo, Galleria mellonella.
Experiment [14] has as its system Ac. pleuropneumoniae 2356. The experiment in a line: Checkerboard synergy assay (BHI, 5% FBS, 0.01% NAD). The experiment is classed as cell-based, Actinobacillus pleuropneumoniae.
Experiment [15] concerns Ac. pleuropneumoniae 3370. The experiment is described as above. Type of experiment: cell-based, Actinobacillus pleuropneumoniae.
Experiment [16] relates to Ac. pleuropneumoniae 2331. The description is as above. Type of experiment: cell-based, Actinobacillus pleuropneumoniae.
Experiment [17] relates to Ac. pleuropneumoniae Shope. The experiment is described as above. Type of experiment: cell-based, Actinobacillus pleuropneumoniae.
The mark [18] stands for this setting: No bola, read-out: MIC of aminoglycoside.
Where [19] appears, read: in the presence of 0.25× MIC Octa-Bola, read-out: MIC of aminoglycoside.
Where [20] appears, read: in the presence of 0.25× MIC Octa-C6, read-out: MIC of aminoglycoside.
Setting [21] is: in the presence of 0.25× MIC Octa-C10, read-out: MIC of aminoglycoside.
The mark [22] stands for this setting: in the presence of 0.25× MIC Octa-C6.
The mark [23] stands for this setting: in the presence of 0.25× MIC Octa-C10.
Setting [24] is: in the presence of 0.25× MIC Octa-Bola.

From publication PMC9942557, “Bolaamphiphile Analogues of 12-bis-THA Cl2 Are Potent Antimicrobial Therapeutics with Distinct Mechanisms of Action against Bacterial, Mycobacterial, and Fungal Pathogens” (mSphere, 2022) come the findings set out here.

Read-outs that look alike come from different tables or passages of the source.

Regarding `CNC(C)C1CCC(N)C(OC2C(N)CC(N)C(OC3OCC(C)(O)C(NC)C3O)C2O)O1` (stereo not shown) [Gentamicin], the MIC in the experiment with A. baumannii AYE (setting [18]) amounted to 256 µg/mL; in the experiment on A. baumannii AYE (setting [19]), 0.5 µg/mL; in the experiment with A. baumannii AYE (setting [20]), 32 µg/mL; in the experiment with A. baumannii AYE (setting [21]), 4 µg/mL; with K. pneumoniae NCTC 13368 (NCTC13368, K. pneumoniae NCTC 13368, in the presence of 0.25× MIC Octa-Bola, read-out: MIC of aminoglycoside) it was 8 µg/mL; in the experiment with K. pneumoniae NCTC 13368 (NCTC13368, read-out: MIC of aminoglycoside), 16 µg/mL. Further, the MIC with P. aeruginosa PAO1 (No bola) came to 2 µg/mL; in the experiment with P. aeruginosa PAO1 (setting [24]), 0.5 µg/mL; in the experiment with P. aeruginosa PAO1 (setting [22]), 0.25 µg/mL; with P. aeruginosa PAO1 (setting [23]) it was 0.25 µg/mL; with K. pneumoniae M6 (setting [18]) it was 1 µg/mL; in the experiment with K. pneumoniae M6 (setting [19]) it was 1 µg/mL. For the same molecule, the MIC in the experiment on K. pneumoniae M6 (setting [20]) stood at 1 µg/mL; in the experiment on K. pneumoniae M6 (setting [21]), 1 µg/mL; in the experiment on E. coli NCTC 12923 (No bola), 2 µg/mL; in the experiment with E. coli NCTC 12923 (setting [24]) it was 2 µg/mL; in the experiment on E. coli NCTC 12923 (setting [22]) it was 2 µg/mL; with E. coli NCTC 12923 (setting [23]), 1 µg/mL. For the same molecule, the MIC was 256 µg/mL with P. aeruginosa NCTC 13437 (No bola); 8 µg/mL in the experiment with P. aeruginosa NCTC 13437 (setting [24]); 8 µg/mL in the experiment on P. aeruginosa NCTC 13437 (setting [22]); 8 µg/mL in the experiment with P. aeruginosa NCTC 13437 (setting [23]); 2 µg/mL with A. baumannii ATCC 17978 [2] (No bola); 0.25 µg/mL in the experiment with A. baumannii ATCC 17978 [2] (setting [24]). Further, the MIC in the experiment with A. baumannii ATCC 17978 [2] (setting [22]) and with A. baumannii ATCC 17978 [2] (setting [23]) was 1 µg/mL each time. The MIC of aminoglycoside with K. pneumoniae NCTC 13368 (setting [22]) and with K. pneumoniae NCTC 13368 (setting [23]) was 16 µg/mL in each case. Further, the larvae rescued with A. baumannii ATCC 17978 [1] (5 mg/kg topical, 96 h) is 76%. For the same molecule, the protection entry in the experiment on A. baumannii ATCC 17978 [1] (lower doses (2.5 and 1.25 mg/kg)) is “ineffective”.
Turning to `Nc1c2c([n+](CCCCCCCC[n+]3c4c(c(N)c5ccccc53)CCCCCC4)c3ccccc13)CCCCCC2` [Octa-C8], the MIC amounted to 0.19 µg/mL against M. smegmatis mc^2 155; 1 µg/mL in experiment [3]; 0.49 µg/mL in the experiment with M. tuberculosis Bleupan; 1 µg/mL against C. tropicalis 8760; 1 µg/mL in experiment [4]; 8 µg/mL in experiment [5]. Moreover, the MIC worked out at 32 µg/mL in experiment [6]; 4 µg/mL in the experiment on C. parapsilosis 3209; 2 µg/mL against C. glabrata 8018; 32 µg/mL in experiment [7]; 2 µg/mL in the experiment with C. albicans 3281; 4 µg/mL in experiment [8]. Moreover, the MIC in experiment [9] was 32 µg/mL; in the experiment with C. albicans 3179, 2 µg/mL; in experiment [10] it was 4 µg/mL; against Klebsiella pneumoniae M6, 32 µg/mL; with C. auris temp probe, 4 µg/mL; against C. parapsilosis, 8 µg/mL. Also, the MIC came out at 0.5 µg/mL in experiment [11], 4 µg/mL against C. krusei 3876, 32 µg/mL in experiment [12] and 32 µg/mL in experiment [13]. For the same molecule, the “Toxicity (EC50)” value in the experiment on HeLa stood at 27.3 ± 1.3 µg/mL; in the experiment on HEK293, 12.9 ± 4.3 µg/mL.
As for `CN[C@H](CC(C)C)C(=O)N[C@H]1C(=O)N[C@@H](CC(N)=O)C(=O)N[C@H]2C(=O)N[C@H]3C(=O)N[C@H](C(=O)N[C@H](C(=O)O)c4cc(O)cc(O)c4-c4cc3ccc4O)[C@H](O)c3ccc(c(Cl)c3)Oc3cc2cc(c3O[C@@H]2O[C@H](CO)[C@@H](O)[C@H](O)[C@H]2O[C@H]2C[C@](C)(N)[C@H](O)[C@H](C)O2)Oc2ccc(cc2Cl)[C@H]1O` [Vancomycin, reference compound], the infected larvae rescued in the experiment with EMRSA-15 (50 mg/kg, single injection 2 h postinfection) was around 80%; in the experiment on EMRSA-15 (a tenth of 50 mg/kg dose), 45%.
Turning to `CCN1CCN(c2cc3c(cc2F)c(=O)c(C(=O)O)cn3C2CC2)CC1` [enrofloxacin, reference compound], the “MIC alone Antibiotic” value in [14] (Octa-C10/enrofloxacin), in experiment [15] (Octa-C10/enrofloxacin), in experiment [16] (Octa-C10/enrofloxacin) and in experiment [17] (Octa-C10/enrofloxacin) was 0.125 µg/mL throughout.
`[H]/N=C(/N)N[C@H]1[C@H](O)[C@@H](O)[C@H](O[C@@H]2O[C@@H](C)[C@](O)(C=O)[C@H]2O[C@@H]2O[C@@H](CO)[C@H](O)[C@@H](O)[C@@H]2NC)[C@@H](N/C(N)=N\[H])[C@@H]1O` [streptomycin, reference compound]: the “MIC alone Antibiotic” value in experiment [14] (Octa-C10/streptomycin) was 64 µg/mL; in experiment [15] (Octa-C10/streptomycin), 16 to 64 µg/mL; in experiment [16] (Octa-C10/streptomycin) it was 32 µg/mL; in experiment [17] (Octa-C10/streptomycin), 32 to 64 µg/mL.
